Series [1] can be described thus: MTT cytotoxicity assay, Caco-2. The following applies: human, Caco-2, ratio of IC50 for HEK-293 to IC50 for Caco-2; read-out: SF (selectivity factor) Caco-2. It counts as cell-based, human. The text has this: (§1) In vitro cytotoxic activities (MTT assay):
(§2) The basic detection of cytotoxicity of anticancer compounds in vitro is MTT assay. The MTT proliferation assay is based on the reduction of the yellow MTT tetrazolium salt (3-[4,5-dimethylthiazol-2-yl]-2,5diphenyltetrazolium bromide) by mitochondrial dehydrogenases to form a purple MTT formazan crystals in viable cells. Synthesized compounds (7a-g) were prior dissolved in 0.1% DMSO and then serial dilution with medium and used in the experiment. Three different types of cancer cell lines were used in this experiment i.e., human Epitheloid Cervix Carcinoma (HeLa), human colon cancer cell line (Caco-2) and one normal kidney cell (HEK-293) were used in the assay. The cells were harvested at the log phase and it is cell counted using haemocytometer. Approximately 1 × 10^3 cells per well were seeded using all the cell lines. They were cultured in 100 μL of a DMEM media in 96-well plates and incubated at 37 °C for 24 hours under a 5% CO2 atmosphere. The cells were then washed with 1X PBS buffer and fresh media was added to the cells. The cells were then treated with different concentrations of the drugs (0.65-150 µM) in the volume of […] /well.
(§3) The control wells contains the same cell count of 1 × 10^3 cells per well of 100 μL medium containing 0.1% DMSO. After 24 h (for HeLa cell and HEK-293) and 72 h (for Caco-2), the medium was discarded and it is washed with 1X PBS and it was incubated with 100 µl of MTT reagent (1 mg/ml) for 4 h at 37°C.
(§4) Then the 96 well plate was placed on the shaker for 10 min and subsequently the absorbance was recorded by the ELISA reader at λ = 490 nm. The experiments were performed in […]
(§5) triplicate. […]
A general note: Formazan colour is commonly taken as a measure of viable cells.

The test system of a further series is Caco-2. Kind of series: MTT cytotoxicity assay, Caco-2. It counts as cell-based, human. The following applies: Homo sapiens, Caco-2; 72 h incubation.
Source text: as §1, §2, §3, §4, §5

In the next series the test system is HeLa. Kind of series: MTT cytotoxicity assay, HeLa. It counts as cell-based, human. The following applies: for IC50: Homo sapiens, HeLa, 24 h incubation; for SF (selectivity factor) HeLa: ratio of IC50 for HEK-293 to IC50 for HeLa. As for the experimental part:
(§6) Cytotoxicity studies were performed for all the synthesized quinoxaline compounds (7a–7g) using standard 3-(4,5-dimethylthiazol-2-yl)-2,5-diphenyltetrazolium bromide (MTT) assay beside a panel of cancer cell lines such as human epithelioid cervix carcinoma (HeLa), human colorectal adenocarcinoma cell line (Caco-2) and one normal human embryonic kidney cells (HEK-293) in triplicates (Table 3). […] It is noteworthy to mention that Compound 7a and 7g presented best cytoselectivity in HeLa and Caco-2 cell lines respectively. […]
as §1
as §2, with “[…]. Cisplatin has been used as a standard positive control drug. The control wells contains the same cell count of 1 × 10^3 cells per well of 100 μL medium containing 0.1% DMSO. After 24 h (for HeLa cell and HEK-293) and 72 h (for Caco-2), the medium was discarded and it is washed with 1X PBS and it was incubated with 100 µl of MTT reagent (1 mg/ml) for 4 h at 37°C.” for “/well.”
as §4, §5

The next series has as its system HEK-293. Kind of series: MTT cytotoxicity assay, HEK-293 normal cells. The settings on record: Homo sapiens, HEK293; 24 h incubation. It counts as cell-based, human. On the procedure: as §6, §1
as §2, with “[…]. Cisplatin has been used as a standard positive control drug. The control wells contains the same cell count of 1 × 10^3 cells per well of 100 μL medium containing 0.1% DMSO. After 24 h (for HeLa cell and HEK-293) and 72 h (for Caco-2), the medium was discarded and it is washed with 1X PBS and it was incubated with 100 µl of MTT reagent (1 mg/ml) for 4 h at 37°C.” for “/well.”
as §4, §5

A short description of series [2]: Fluorescence quantum yield in water. It counts as physicochemical. The settings on record: 298 K, quinine sulphate as standard. On the procedure:
To know the absorption and emission behaviour of these synthesized compounds (7a–g), a standard concentration (3 × 10^−6 mol l^−1) in water has been used. In UV-vis spectra, λmax of all these compounds are observed at 320–330 nm due to π–π* transition (Fig. S1a ^†). The corresponding emission peaks are observed at 400–500 nm (Fig. S1b ^†). The emission of quantum yield (Φ) was calculated for all of the compounds (7a–g) using eqn (1) (Table S1 ^†). […]
2.6.2. Fluorescence study:
To know the emission property of all the synthesized complexes (7a-g), an initial investigation was performed using spectrofluorometric method in water by using absorption maximum as their excitation energy. Fluorescence quantum yield (Ф) of all the prepared compounds performed in water solution were calculated by employing the comparative William's method which involves the use of well-characterized standard with the known quantum yield value. Quinine sulphate was used as reference fluorophore excited at 350 nm and emission at 452 nm, quantum yield (ФR) = 0.50 in 1N H2SO4. The gradients of the plots are proportional to the quantum yield (Ф) of the studied system. The data obtained and quantum yield value calculated according to the equation (2): […]
Where, φ = Quantum yield, I = Peak Area, OD = absorbance at λmax, η = Refractive index of solvent and reference. Here, we have used Quinine Sulphate as a standard for calculating emission of quantum yield. […]

Structures are written as SMILES.

For `Clc1cc2nc(COc3ccccc3-c3nc4ccccc4s3)c(COc3ccccc3-c3nc4ccccc4s3)nc2cc1Cl` [Compound 7e], the melting point was in the range of 145 to 150 °C. The selectivity ratio in series [1] is above 9. The IC50 with Caco-2 amounted to 20.9 ± 1.6 µM. Besides, in the series on HeLa, the concentration for half-maximal inhibition (IC50) is 38.9 ± 0.1 µM and the “SF (selectivity factor) HeLa” value is above 5.1. Besides, the IC50 in the series on HEK-293 is above 200 µM. Moreover, in series [2], the “Φ, emission quantum yield” value is given as 0.04.

Regarding `COc1ccc2nc(COc3ccccc3-c3nc4ccccc4s3)c(COc3ccccc3-c3nc4ccccc4s3)nc2c1` [Compound 7g, 2,2'-((((6-methoxyquinoxaline-2,3-diyl)bis(methylene))bis(oxy))bis(2,1-phenylene))bis(benzo[d]thiazole)], the melting point lay within 155 to 160 °C. In addition, the selectivity ratio in series [1] is above 9. In the series with Caco-2, the IC50 worked out at 20.8 ± 1.6 µM. Moreover, in the series on HeLa, the half-maximal inhibitory concentration (IC50) was determined as 36.8 ± 0.2 µM and the “SF (selectivity factor) HeLa” value is above 5.4. Moreover, the concentration for half-maximal inhibition (IC50) with HEK-293 is above 200 µM. Further, the “Φ, emission quantum yield” value in series [2] worked out at 0.013.

As a reminder, the IC50 is the midpoint of a concentration-inhibition curve. One may read the melting point as the temperature, or range, at which the solid turns liquid.

For the origin of these results see publication PMC9061853, “Luminescent bis(benzo[d]thiazolyl)quinoxaline: facile synthesis, nucleic acid and protein BSA interaction, live-cell imaging, biopharmaceutical research and cancer theranostic application” (RSC Advances, 2019).
